Experimental data as given in patent US20170137818A1, “APTAMER INHIBITING BIOLOGICAL ACTIVITY OF AUTOTAXIN BY BINDING WITH AUTOTAXIN, AND USE THEREOF” (RIBOMIC INC., priority 2014, published 2017).
Each block holds one molecule with its values, some of them ahead of it.

Tests used:
[1] = biological target: T1, autotaxin (Homo sapiens, UniProt Q13822); test: NPP2 inhibitory assay (pNP-TMP substrate); format: biochemical; conditions: mean of 2-3 measurements ± standard deviation
T1 construct: His; purchased R&D
Excerpt: Whether an aptamer inhibits the enzyme activity of autotaxin can be evaluated, for example, by the following test. As a substrate of autotaxin, phosphodiester bond-containing synthetic substrate p-nitrophenyl thymidine 5′-monophosphate (pNP-TMP) (SIGMA) is used. A phosphodiester bond is cleaved by hydrolysis, and p-nitrophenol is liberated. The p-nitrophenol develops a yellow color, and the color is detected. For the assay, a 96-well plate (96-Well EIAsurasshuRIA Polystyrene Plates, Costar) was used, and the amount of the reaction mixture was 200 μL. Nucleic acid was prepared in solution A (see below-mentioned Example 1) (100 μL), pNP-TMP (20 μL) adjusted to 10 mM in the reaction mixture A was added, and the mixture was stirred well and heated at 37° C. for 5 min. On the other hand, 6 ng of autotaxin (Recombinant Human, manufactured by R&D) diluted with solution A was prepared (80 μL), and heated at 37° C. for 5 min. After heating, they were mixed to start an enzyme reaction. The final autotaxin concentration in the reaction solution was 0.3 nM, and the final substrate concentration was 1 mM. A plate containing the reaction mixture was heated at 37° C. for 24 hr, placed in a microplate reader SpectraMax190 (manufactured by Molecular Devices) and the absorbance was determined at wavelength 405 nm. The absorbance when nucleic acid is not added as 100% (A0), an enzyme activity rate was determined from the absorbance (A) of each test substance and according to the following formula.
Enzyme activity rate=(A/A0)×100
(§1) The concentration (IC50) of an inhibitor necessary for inhibiting the enzyme activity by 50% was determined.
Whether these nucleic acids show an autotaxin inhibitory activity was evaluated by the following method. As a substrate of autotaxin, phosphodiester bond-containing synthetic substrate p-nitrophenyl thymidine 5′-monophosphate (pNP-TMP) (SIGMA) was selected (hereinafter to be referred to as NPP2 inhibitory assay). A phosphodiester bond is cleaved by hydrolysis, and p-nitrophenol is liberated. The p-nitrophenol develops a yellow color, and the color is detected. For the assay, a 96-well plate (96-Well EIA/RIA Polystyrene Plates, Costar) was used, and the amount of the reaction mixture was 200 μL. As the reaction mixture, solution A was used. Nucleic acids were prepared in solution A (100 μL), pNP-TMP (20 μL) adjusted to 10 mM in the reaction mixture A was added, and the mixture was stirred well and heated at 37° C. for 5 min. On the other hand, 6 ng of autotaxin diluted with solution A was prepared (80 μL), and heated at 37° C. for 5 min. After heating, they were mixed to start enzyme reaction. The final autotaxin concentration in the reaction solution was 0.3 nM, and the final substrate concentration was 1 mM. A plate containing the reaction mixture was heated at 37° C. for 24 hr, placed in a microplate reader SpectraMax190 (manufactured by Molecular Devices) and the absorbance was determined at wavelength 405 nm. The absorbance when nucleic acids are not added as 100% (A0), an […] was determined from the absorbance (A) of each test substance and according to the following formula.
as §1

[2] = biological target: T1, autotaxin; test: Biacore surface plasmon resonance, autotaxin immobilized on CM4 chip, nucleic acid as analyte; format: binding; conditions: autotaxin immobilized about 2700 RU, nucleic acid 0.3 μM as analyte; maximum RU relative to SEQ ID NO: 12
Experimental: In another measurement method, an autotaxin is first immobilized on a sensorchip. The immobilization amount is set to about 2700 RU. An aptamer solution as an analyte prepared to 0.30 μM is injected by 20 μL, and binding of the aptamer to the autotaxin is detected.
All nucleic acids of SEQ ID NOs: 11-16 were produced by chemical synthesis. Whether these nucleic acids bind to autotaxin was evaluated by the surface plasmon resonance method. For the measurement, Biacore T100 manufactured by GE Healthcare was used, and the measurement was performed by the method shown below. About 2700 RU autotaxin was immobilized on a sensorchip surface of CM4 chip by using an amino coupling kit. The flow rate was 20 μL/min, and nucleic acids (20 μL) prepared to 0.3 μM were injected as an analyte. As a running buffer, solution A was used.

[3] = biological target: T1, autotaxin; test: Biacore surface plasmon resonance, nucleic acid immobilized on SA chip, autotaxin as analyte; format: binding; conditions: Example 1, running text
Experimental: Biacore T100 manufactured by GE Healthcare is used for the measurement of binding strength. In one measurement method, an aptamer is first immobilized on a sensorchip. The immobilization amount is set to about 1500 RU. An autotaxin solution as an analyte prepared to 0.020 μM is injected by 20 μL, and binding of the autotaxin to the aptamer is detected.
All nucleic acids shown in SEQ ID NOs: 4-10 were produced by chemical synthesis. The binding activity of these nucleic acids to autotaxin was evaluated by the surface plasmon resonance method. For the measurement, Biacore T100 manufactured by GE Healthcare was used. The SA chips with streptavidin immobilized thereon were used as the sensor chips. Binding thereto was about 1500 RU of 16 nucleotide Poly dT of which biotin was bound to the 5′-terminus. The nucleic acids used as a ligand were added with Poly A (16 nucleotides) to the 3′-terminus, and were immobilized on SA chips by T-A annealing. The nucleic acids (20 μL) were injected at a flow rate of 20 μL/min to immobilize about 1500 RU of the nucleic acids. An autotaxin for analyte was prepared at 0.02 μM, and 20 μL thereof was injected. As a running buffer, solution A (mixed solution of 145 mM sodium chloride, 5.4 mM potassium chloride, 1.8 mM calcium chloride, 0.8 mM magnesium chloride, 20 mM Tris (pH 7.6), 0.05% Tween20) was used.

[4] = biological target: T1, autotaxin; test: LysoPLD inhibitory assay (14:0 LPC substrate, choline detection); format: biochemical
Excerpt: As a substrate of autotaxin, 14:0 lysophosphatidylcholine (LPC, Avanti) was selected (hereinafter to be referred to as LysoPLD inhibitory assay). LPC is hydrolyzed by the lysophospholipase D activity of autotaxin and decomposed into lysophosphatidic acid (LPA) and choline. Choline is oxidized by choline oxidase to afford hydrogen peroxide. In the presence of the hydrogen peroxide and peroxidase, N-ethyl-N-(2-hydroxy-3-sulfopropyl)-3-methoxyaniline (TOOS) and 4-aminoantipyrine (4-AA) undergo oxidation condensation reaction, which develops a purple color to be detected.
For the reaction, a 96-well plate (polypropylene 96-well, manufactured by BMbio) was used, and the amount of the reaction mixture was 60 μL. As a reaction solution, solution A was used. […] The lysophospholipase D activity of autotaxin was evaluated as follows. […] The absorbance was measured at a wavelength of 548 nm, and used as a blank value. Then, solution C (50 μL) was added, and changes in the absorbance at wavelength 548 nm were measured over time. Solution C contained 100 mM tris (pH 8.0), 10 U/mL choline oxidase (manufactured by TOYOBO), 1 mM 4-AA (manufactured by DOJINDO), and 0.01% Triton-X. The absorbance of solution blank at the time point when solution B was added, which had been measured earlier, was subtracted from the absorbance at 15 min after addition of solution C, whereby true absorbance value was obtained. […]

[5] = Table 4, >1.0 = no inhibitory activity up to 1.0 μM

Molecule: 29 (GCTGGCCGGAACCGTGCATATGGTCGCCAGC; DNA, backbone and methylation of C not given here) [compound 29]
IC50 [1, 5]: 11 ± 4 nM

Molecule: 15 (CCTGGACGGAACCAATACTTGGTCTCCAGG; DNA, backbone and methylation of C not given here) [compound 15]
Binding activity by Biacore [2]: − (not more than 10% of the aptamer shown in SEQ ID NO: 12 that showed the highest binding amount) | IC50 ([1]; Table 2): 990 ± 11 nM

Molecule: 11 (GTACTCATGGACGGAACCAGAATACTTTTGGTCTCCATTGAGTAC; chemistry not fully specified) [compound 11]
Binding activity by Biacore [2]: + (not less than that)

Molecule: 12 (CCTGGACGGAACCAGAATACTTTTGGTCTCCAGG; chemistry not fully specified) [compound 12]
Binding activity by Biacore [2]: + (not less than that)

binding to autotaxin (in words) [3]: not bind
Molecule: GTGGTCTAGCTGTACTCNNNNNNNNNNNNNNNNNNNNNNNNNNNNNNNNNNNNNNNNCCACAGTCAACGAGCTA [SEQ ID NO: 1(40N), reference compound]

Molecule: 26 (CGCTGGGGTACGCTCGGAACCGAGGCAATTGGTCAGCG; DNA, backbone and methylation of C not given here) [compound 26]
IC50 [1, 5]: 440 ± 41 nM

Molecule: 16 (CTGGACGGAACCAGAATACTTTTGGTCTCCAG; DNA, backbone and methylation of C not given here) [compound 16]
Binding activity by Biacore [2]: + (not less than that) | IC50 ([1]; Table 2): 18 ± 1 nM

Molecule: 14 (GGGACGGAACCAGAATACTTTTGGTCTCCC; DNA, backbone and methylation of C not given here) [compound 14]
Binding activity by Biacore [2]: + (not less than that) | IC50 ([1]; Table 2): 42 ± 5 nM

Molecule: 13 (TGGACGGAACCAGAATACTTTTGGTCTCCA; DNA, backbone and methylation of C not given here) [compound 13]
Binding activity by Biacore [2]: + (not less than that) | IC50 ([1]; Table 2): 110 ± 7 nM

Molecule: 28 (ACAGGCGCTGGCCGGAACCGTGCATATGGTC; DNA, backbone and methylation of C not given here) [compound 28]
IC50 [1, 5]: > 1000 nM

LysoPLD inhibitory activity (in words) [4]: an inhibitory activity was not found | IC50 ([4]; autotaxin 2.1 nM, 14:0 LPC 2 mM, 37° C. 6 hr, mean of 2-3 measurements±standard deviation, >1000 = no inhibitory activity up to 1000 nM): > 1000 nM
Molecule: CCCCCCCCCCCCCC(=O)Nc1ccc(CP(=O)(O)O)cc1 [S32826]

Molecule: 27 (TACGCTCGGAACCGAGGCAATTGGTCAGCGTG; DNA, backbone and methylation of C not given here) [compound 27]
IC50 [1, 5]: 24 ± 10 nM
